# Data: PubChem BioAssay AID2060487 (Molecular Pharmacology Branch, DTP, NCI, 2025)
# System: 997537-175-T-J1-PDC complex spheroid viability
# Assay: Anticancer human tumor 997537-175-T-J1-PDC patient-derived colon adenocarcinoma cell line growth inhibition [GQUAD]
# Settings: for IC50: curve of first compound; for viability, T/C: stronger effect = lower value
# Method in brief: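 Tumor cells were grown as complex spheroids with HUVEC endothelial cells and mesenchymal stem cells as stroma. G-quadruplex stabilizers were combined with targeted agents over half-log dilutions from near the clinical Cmax, or from 10 microM.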
# [1] = second compound 0.0316 µM, first compound 0.0316 µM
# [2] = second compound 0.0316 µM, first compound 0.1 µM
# [3] = second compound 0.0316 µM, first compound 0.316 µM
# [4] = second compound 0.0316 µM, first compound 1 µM
# [5] = second compound 0.0316 µM, first compound 3.16 µM
# [6] = second compound 0.0316 µM, first compound 10 µM
# [7] = second compound 0.1 µM, first compound 0.0316 µM
# [8] = second compound 0.1 µM, first compound 0.1 µM
# [9] = second compound 0.1 µM, first compound 0.316 µM
# [10] = second compound 0.1 µM, first compound 1 µM
# [11] = second compound 0.1 µM, first compound 3.16 µM
# [12] = second compound 0.1 µM, first compound 10 µM
# [13] = second compound 0.316 µM, first compound 0.0316 µM
# [14] = second compound 0.316 µM, first compound 0.1 µM
# [15] = second compound 0.316 µM, first compound 0.316 µM
# [16] = second compound 0.316 µM, first compound 1 µM
# [17] = second compound 0.316 µM, first compound 3.16 µM
# [18] = second compound 0.316 µM, first compound 10 µM
# [19] = second compound 1 µM, first compound 0.0316 µM
# [20] = second compound 1 µM, first compound 0.1 µM
# [21] = second compound 1 µM, first compound 0.316 µM
# [22] = second compound 1 µM, first compound 1 µM
# [23] = second compound 1 µM, first compound 3.16 µM
# [24] = second compound 1 µM, first compound 10 µM
# [25] = second compound 3.16 µM, first compound 0.0316 µM
# [26] = second compound 3.16 µM, first compound 0.1 µM
# [27] = second compound 3.16 µM, first compound 0.316 µM
# [28] = second compound 3.16 µM, first compound 1 µM
# [29] = second compound 3.16 µM, first compound 3.16 µM
# [30] = second compound 3.16 µM, first compound 10 µM
# [31] = second compound 10 µM, first compound 0.0316 µM
# [32] = second compound 10 µM, first compound 0.1 µM
# [33] = second compound 10 µM, first compound 0.316 µM
# [34] = second compound 10 µM, first compound 1 µM
# [35] = second compound 10 µM, first compound 3.16 µM
# [36] = second compound 10 µM, first compound 10 µM
# 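Also: spheroids exposed to the agents for 7 days.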
# 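For viability, T/C in this document: 100% = DMSO vehicle control viability.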
compound,measurement,setting,value
CCCS(=O)(=O)Nc1ccc(F)c(C(=O)c2c[nH]c3ncc(-c4ccc(Cl)cc4)cc23)c1F + Cc1cnc(CNC(=O)c2c(=O)c3ccc(N4CCCN(C)CC4)nc3n3c2sc2ccccc23)cn1,IC50,second compound 0.0316 µM,1.9 µM
same,IC50,second compound 0.1 µM,1.76 µM
same,IC50,second compound 0.316 µM,0.778 µM
same,IC50,second compound 1 µM,0.739 µM
same,IC50,second compound 3.16 µM,1.89 µM
same,IC50,second compound 10 µM,1.46 µM
same,"viability, T/C",[1],77.7%
same,"viability, T/C",[2],50.8%
same,"viability, T/C",[3],67.3%
same,"viability, T/C",[4],44.8%
same,"viability, T/C",[5],56.2%
same,"viability, T/C",[6],22.2%
same,"viability, T/C",[7],73.8%
same,"viability, T/C",[8],64.7%
same,"viability, T/C",[9],76.1%
same,"viability, T/C",[10],40.8%
same,"viability, T/C",[11],53.1%
same,"viability, T/C",[12],21.6%
same,"viability, T/C",[13],93.5%
same,"viability, T/C",[14],56.2%
same,"viability, T/C",[15],60%
same,"viability, T/C",[16],45.7%
same,"viability, T/C",[17],55.2%
same,"viability, T/C",[18],21.8%
same,"viability, T/C",[19],84.3%
same,"viability, T/C",[20],62.7%
same,"viability, T/C",[21],48.4%
same,"viability, T/C",[22],56.3%
same,"viability, T/C",[23],48.2%
same,"viability, T/C",[24],27.7%
same,"viability, T/C",[25],82.7%
same,"viability, T/C",[26],58.6%
same,"viability, T/C",[27],62.2%
same,"viability, T/C",[28],64.7%
same,"viability, T/C",[29],42.8%
same,"viability, T/C",[30],26.1%
same,"viability, T/C",[31],83.6%
same,"viability, T/C",[32],74.2%
same,"viability, T/C",[33],68.8%
same,"viability, T/C",[34],44%
same,"viability, T/C",[35],51.5%
same,"viability, T/C",[36],26.9%
COc1ccc([C@@H](O)c2cc(-c3ncnc4cc(N5CCOCC5)ccc34)c(F)cc2Cl)nn1 + CN(C)c1ccc(Nc2c3ccc(NC(=O)CCN4CCCC4)cc3nc3cc(NC(=O)CCN4CCCC4)ccc23)cc1,IC50,second compound 0.0316 µM,> 10 µM
same,IC50,second compound 0.1 µM,> 10 µM
same,IC50,second compound 0.316 µM,> 10 µM
same,IC50,second compound 1 µM,> 10 µM
same,IC50,second compound 3.16 µM,> 10 µM
same,IC50,second compound 10 µM,> 10 µM
same,"viability, T/C",[1],90.2%
same,"viability, T/C",[2],77.6%
same,"viability, T/C",[3],102%
same,"viability, T/C",[4],75%
same,"viability, T/C",[5],72.4%
same,"viability, T/C",[6],90%
same,"viability, T/C",[7],97%
same,"viability, T/C",[8],90.7%
same,"viability, T/C",[9],78.9%
same,"viability, T/C",[10],68.4%
same,"viability, T/C",[11],78%
same,"viability, T/C",[12],96.9%
same,"viability, T/C",[13],85.9%
same,"viability, T/C",[14],65.8%
same,"viability, T/C",[15],90.1%
same,"viability, T/C",[16],60.3%
same,"viability, T/C",[17],81.9%
same,"viability, T/C",[18],84.9%
same,"viability, T/C",[19],77.8%
same,"viability, T/C",[20],82.5%
same,"viability, T/C",[21],86.6%
same,"viability, T/C",[22],67.1%
same,"viability, T/C",[23],100%
same,"viability, T/C",[24],95.2%
same,"viability, T/C",[25],84%
same,"viability, T/C",[26],64.4%
same,"viability, T/C",[27],93.8%
same,"viability, T/C",[28],86.1%
same,"viability, T/C",[29],108%
same,"viability, T/C",[30],76.3%
same,"viability, T/C",[31],82.9%
same,"viability, T/C",[32],86.2%
same,"viability, T/C",[33],93%
same,"viability, T/C",[34],84.7%
same,"viability, T/C",[35],95.2%
same,"viability, T/C",[36],74.1%
